Some test systems named below: MCF7 breast; MOLT-4 leukemia; CAKI-1 renal; SK-OV-3 ovarian; NCI-H226 lung; SK-MEL-5 melanoma; K-562 leukemia; SNB-75 CNS.
What all share (assay): NCI anticancer screen, dose series, 48 h

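Five concentrations, 48 hours, 96-well plates. The concentration for 50% growth inhibition is given as GI50. TGI: total growth inhibition.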

In PubChem BioAssay (NCI) one finds TGI and GI50 data, which are given here for 13 molecules.

As for `O=C1NC(O)CCN1C1CC(O)C(CO)O1` (centres undefined), the TGI with MCF7 breast, in the experiment on MOLT-4 leukemia, in the experiment on CAKI-1 renal, with SK-OV-3 ovarian, with NCI-H226 lung and in the experiment with SK-MEL-5 melanoma was above 100 µM each time. For the same molecule, the TGI with K-562 leukemia was above 100 µM.
As for `O=C(O)c1ccc2cccnc2c1O`, the GI50 is 1.51 µM in the experiment with SNB-75 CNS; 1.5 µM with MCF7 breast; 1.82 µM with MOLT-4 leukemia; 2.16 µM in the experiment on CAKI-1 renal; 1.7 µM with SK-OV-3 ovarian; 1.95 µM in the experiment on NCI-H226 lung. Also, in the experiment on K-562 leukemia, the GI50 was 0.896 µM. The TGI in the experiment on SNB-75 CNS was above 100 µM; with MCF7 breast, above 100 µM; with MOLT-4 leukemia, above 70.3 µM; in the experiment with CAKI-1 renal it was 13.8 µM; with SK-OV-3 ovarian, 4.89 µM; in the experiment on NCI-H226 lung, above 56 µM. Further, the TGI in the experiment with K-562 leukemia is above 100 µM.
Consider `CC(=O)NS(=O)(=O)c1ccc(-n2nc(-c3ccccc3)cc2C2=CC(=O)C=CC2=O)cc1`, for which the GI50 was above 100 µM in the experiment on MCF7 breast; 16.4 µM with MOLT-4 leukemia; above 100 µM in the experiment on CAKI-1 renal; above 100 µM in the experiment on NCI-H226 lung; 44.2 µM in the experiment with SK-MEL-5 melanoma; 57 µM with K-562 leukemia. In addition, the TGI is above 100 µM with MCF7 breast; 73.7 µM in the experiment with MOLT-4 leukemia; above 100 µM in the experiment with CAKI-1 renal; above 100 µM in the experiment with NCI-H226 lung; above 100 µM in the experiment on SK-MEL-5 melanoma; above 100 µM in the experiment with K-562 leukemia.
As to `C=C1C(=O)O[C@H]2[C@H]1CC/C(COC(=O)/C=C/c1c[nH]c3ccccc13)=C\CC[C@@]1(C)O[C@@H]21`, the GI50 was 0.17 µM in the experiment on SNB-75 CNS; 0.226 µM with MCF7 breast; 0.302 µM in the experiment on MOLT-4 leukemia; 1.88 µM with SK-OV-3 ovarian; 0.23 µM in the experiment with NCI-H226 lung; 0.208 µM in the experiment with SK-MEL-5 melanoma. Further, the GI50 in the experiment with K-562 leukemia is 0.273 µM. Moreover, the TGI in the experiment with SNB-75 CNS was found to be 0.428 µM; with MCF7 breast, 1.01 µM; in the experiment on MOLT-4 leukemia, 1.78 µM; with SK-OV-3 ovarian it was 3.59 µM; in the experiment with NCI-H226 lung, 0.702 µM; with SK-MEL-5 melanoma, 0.516 µM. Moreover, the TGI with K-562 leukemia was above 100 µM.
`CC1(C)CC(=O)C(=CN2C(=O)CNC2=S)C(=O)C1`: the TGI in the experiment with SNB-75 CNS, in the experiment on MCF7 breast, in the experiment with MOLT-4 leukemia, in the experiment with CAKI-1 renal, in the experiment with SK-OV-3 ovarian and in the experiment with NCI-H226 lung was above 100 µM each time. This molecule also showed a TGI in the experiment on SK-MEL-5 melanoma above 100 µM.
In the case of `COc1cc(CNC(=O)CCSc2nc3ccccc3c(=O)n2Cc2cc(OC)c(OC)c(OC)c2)cc(OC)c1OC`, the GI50 with SNB-75 CNS was 2.06 µM; in the experiment with MCF7 breast it was 3.46 µM; with MOLT-4 leukemia, 7.38 µM; in the experiment with CAKI-1 renal it was 5.46 µM; in the experiment on SK-OV-3 ovarian, 5.34 µM; in the experiment on NCI-H226 lung it was 14.6 µM. Further, the GI50 in the experiment on SK-MEL-5 melanoma was 2.85 µM. The TGI was 12.9 µM in the experiment with SNB-75 CNS; above 100 µM in the experiment with MCF7 breast; above 100 µM with MOLT-4 leukemia; above 100 µM in the experiment on CAKI-1 renal; 18.6 µM with SK-OV-3 ovarian; above 100 µM in the experiment with NCI-H226 lung. In the experiment with SK-MEL-5 melanoma, this molecule had a TGI of 13.7 µM.
As to `Cc1ccc([N+](=O)[O-])cc1NC(=O)C(=O)C1CCC2=C(Sc3ccccc3N2)C1=O` (centres undefined), the TGI with SNB-75 CNS, with MCF7 breast, in the experiment with MOLT-4 leukemia, in the experiment on CAKI-1 renal, in the experiment on SK-OV-3 ovarian and with NCI-H226 lung was above 100 µM in each case. For the same molecule, the TGI in the experiment with SK-MEL-5 melanoma is above 100 µM.
`Cc1ccc(/C=C2\CN(Cc3cn(CCNc4ccnc5cc(Cl)ccc45)nn3)C/C(=C\c3ccc(C)cc3)C2=O)cc1`: the GI50 is 1.61 µM in the experiment with SNB-75 CNS; 1.62 µM in the experiment with MCF7 breast; 1.9 µM with SK-OV-3 ovarian; 2.03 µM in the experiment on NCI-H226 lung; 1.7 µM in the experiment on SK-MEL-5 melanoma. Further, the TGI with SNB-75 CNS was 3.53 µM; in the experiment on MCF7 breast, 3.46 µM; in the experiment on SK-OV-3 ovarian, 3.57 µM; in the experiment on NCI-H226 lung, 4.8 µM; in the experiment on SK-MEL-5 melanoma, 3.12 µM.
With `O=C(O)c1cc2c(c3ccsc13)-c1ccccc1CC2`, the GI50 with SNB-75 CNS is 86.2 µM; in the experiment with MCF7 breast, 42 µM; in the experiment with CAKI-1 renal, 52 µM; with SK-OV-3 ovarian it was 85.1 µM; in the experiment on NCI-H226 lung, 34.8 µM; in the experiment on SK-MEL-5 melanoma, 31.3 µM. In addition, the GI50 with K-562 leukemia was 40.6 µM. Also, the TGI with SNB-75 CNS, in the experiment with MCF7 breast, with CAKI-1 renal, in the experiment with SK-OV-3 ovarian, in the experiment with NCI-H226 lung and in the experiment with SK-MEL-5 melanoma was above 100 µM throughout. The molecule further registered a TGI in the experiment on K-562 leukemia above 100 µM.
With `C=Cc1cnc([N+](=O)[O-])n1C`, the TGI in the experiment with MCF7 breast, with MOLT-4 leukemia, in the experiment on CAKI-1 renal, in the experiment with SK-OV-3 ovarian, in the experiment on NCI-H226 lung and with SK-MEL-5 melanoma was above 100 µM throughout.
`CC(=O)Nc1cc2cc(NS(=O)(=O)c3cc(C(F)(F)F)cc(C(F)(F)F)c3)ccc2oc1=O`: the TGI in the experiment on MCF7 breast, in the experiment on MOLT-4 leukemia, in the experiment with CAKI-1 renal, in the experiment with NCI-H226 lung, in the experiment with SK-MEL-5 melanoma and with K-562 leukemia was above 100 µM in each case.
For the molecule `C=C(C)[C@@H]1CC[C@]2(C)[C@H](CC=C3[C@@H]4[C@H](C)[C@@H](C)CC[C@]4(CO)CC[C@]32C)[C@@]1(C)CCCN`, the GI50 in the experiment on SNB-75 CNS was 0.848 µM; with MOLT-4 leukemia it was 1.35 µM; in the experiment on CAKI-1 renal, 1.69 µM; in the experiment with SK-OV-3 ovarian, 4.42 µM; in the experiment with NCI-H226 lung it was 6.72 µM; in the experiment with SK-MEL-5 melanoma, 0.91 µM. Moreover, the GI50 in the experiment with K-562 leukemia was 1.22 µM. The TGI in the experiment on SNB-75 CNS was determined as 3.62 µM; in the experiment with MOLT-4 leukemia, 4.07 µM; with CAKI-1 renal it was 5.58 µM; with SK-OV-3 ovarian it was 12 µM; in the experiment with NCI-H226 lung it was 18.3 µM; in the experiment on SK-MEL-5 melanoma, 1.65 µM. The TGI with K-562 leukemia was 3.63 µM.
With `Cc1ccc(S(=O)(=O)c2ccsc2N)cc1`, the GI50 with MCF7 breast was above 100 µM; in the experiment with MOLT-4 leukemia, above 100 µM; in the experiment on CAKI-1 renal, above 100 µM; with SK-OV-3 ovarian it was above 100 µM; with NCI-H226 lung, 45.9 µM; in the experiment with SK-MEL-5 melanoma it was 66 µM. In the experiment with K-562 leukemia, the GI50 was above 100 µM. Further, the TGI in the experiment on MCF7 breast, with MOLT-4 leukemia, with CAKI-1 renal, in the experiment with SK-OV-3 ovarian, in the experiment on NCI-H226 lung and in the experiment on SK-MEL-5 melanoma was above 100 µM throughout. In addition, the TGI with K-562 leukemia was above 100 µM.
